Data from the NIST ThermoML archive (doi:10.1016/j.fluid.2010.03.010).
Numbers after ± are expanded uncertainties.

Experiment: molar heat capacity at constant pressure
Settings: 101.33 kPa, Liquid, Differential Scanning Calorimetry

| SMILES | molar heat capacity at constant pressure (308.16 K) | molar heat capacity at constant pressure (313.16 K) | molar heat capacity at constant pressure (318.16 K) | molar heat capacity at constant pressure (323.16 K) | molar heat capacity at constant pressure (328.22 K) | molar heat capacity at constant pressure (333.22 K) | molar heat capacity at constant pressure (338.19 K) | molar heat capacity at constant pressure (343.18 K) | molar heat capacity at constant pressure (348.25 K) | molar heat capacity at constant pressure (353.18 K) | molar heat capacity at constant pressure (358.25 K) | molar heat capacity at constant pressure (363.18 K) |
| --- | --- | --- | --- | --- | --- | --- | --- | --- | --- | --- | --- | --- |
| CCCC[n+]1ccn(C)c1.O=S(=O)([N-]S(=O)(=O)C(F)(F)F)C(F)(F)F | 573.13 ± 17 J/K/mol | 575.92 ± 17 J/K/mol | 577.32 ± 17 J/K/mol | 581.51 ± 17 J/K/mol | 584.31 ± 18 J/K/mol | 588.5 ± 18 J/K/mol | 588.5 ± 18 J/K/mol | 592.7 ± 18 J/K/mol | 595.49 ± 18 J/K/mol | 596.89 ± 18 J/K/mol | 599.68 ± 18 J/K/mol | 602.48 ± 18 J/K/mol |
| CCCCn1cc[n+](C)c1.N#CN=C=[N-] [1-butyl-3-methylimidazolium dicyanamide] | 381.78 ± 11 J/K/mol | 384.86 ± 12 J/K/mol | 382.81 ± 11 J/K/mol | 386.92 ± 12 J/K/mol | 386.92 ± 12 J/K/mol | 388.97 ± 12 J/K/mol | 391.02 ± 12 J/K/mol | 392.05 ± 12 J/K/mol | 394.1 ± 12 J/K/mol | 395.13 ± 12 J/K/mol | 396.15 ± 12 J/K/mol | 399.23 ± 12 J/K/mol |
| CCOS(=O)(=O)[O-].CCn1cc[n+](C)c1 [1-ethyl-3-methylimidazolium ethyl sulfate] | 393.42 ± 12 J/K/mol | 396.97 ± 12 J/K/mol | 399.33 ± 12 J/K/mol | 402.06 ± 12 J/K/mol | 405.24 ± 12 J/K/mol | 406.42 ± 12 J/K/mol | 408.78 ± 12 J/K/mol | 411.14 ± 12 J/K/mol | 414.69 ± 12 J/K/mol | 415.87 ± 12 J/K/mol | 418.23 ± 13 J/K/mol | 420.6 ± 13 J/K/mol |
